Measurements taken from the supplement of paper PMC10307832.

What was measured:
Assay in all cases: relative viability (nuclei count vs DMSO), 5 days (fraction); higher = more cells survive
[1] = compound: CN(C)C[C@@H]1CCn2cc(c3ccccc32)C2=C(C(=O)NC2=O)c2cn(c3ccccc23)CCO1 [Ruboxistaurin] + NC(=O)Nc1cc(-c2cccc(F)c2)sc1C(=O)N[C@H]1CCCNC1 [AZD7762] (partner 0.2 µM)
Outline: (§1)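 Nuclei were stained with Hoechst during a one-step fixation (final 0.05% Triton X-100, 1% formaldehyde, 1 ug/ml Hoechst) carried out 5 days after dosing, then counted on 4× images. The cells, lung cancer lines in 1536-well plates, had been dosed by pin tool the day after seeding with one drug alone or a fixed anchor-drug dose plus five library-drug doses (not always all listed) in √10 steps. Relative viability is the nuclei count in treated wells divided by that in vehicle wells, and each value is the median of duplicate plates.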

[2] = compound: CN(C)C[C@@H]1CCn2cc(c3ccccc32)C2=C(C(=O)NC2=O)c2cn(c3ccccc23)CCO1 [Ruboxistaurin] + CC1(C)CCC(c2ccc(Cl)cc2)=C(CN2CCN(c3ccc(C(=O)NS(=O)(=O)c4ccc(N[C@H](CCN5CCOCC5)CSc5ccccc5)c(S(=O)(=O)C(F)(F)F)c4)cc3)CC2)C1 [Navitoclax] (partner 0.5 µM)
Outline: as §1

[3] = compound: CN(C)C[C@@H]1CCn2cc(c3ccccc32)C2=C(C(=O)NC2=O)c2cn(c3ccccc23)CCO1 [Ruboxistaurin] + CC(=O)Nc1cccc(-n2c(=O)n(C3CC3)c(=O)c3c(Nc4ccc(I)cc4F)n(C)c(=O)c(C)c32)c1 [Trametinib] (partner 0.02 µM)
Outline: as §1

[4] = compound: CN(C)C[C@@H]1CCn2cc(c3ccccc32)C2=C(C(=O)NC2=O)c2cn(c3ccccc23)CCO1 [Ruboxistaurin] + Nc1ncn([C@H]2C[C@H](O)[C@@H](CO)O2)c(=O)n1 [Decitabine] (partner 2 µM)
Outline: as §1

[5] = compound: CN(C)C[C@@H]1CCn2cc(c3ccccc32)C2=C(C(=O)NC2=O)c2cn(c3ccccc23)CCO1 [Ruboxistaurin] + CCNC(=O)c1noc(-c2cc(C(C)C)c(O)cc2O)c1-c1ccc(CN2CCOCC2)cc1 [Luminespib] (partner 0.01 µM)
Outline: as §1

Row | Cell Line | relative viability ([1]; first compound 0.08 µM) | relative viability ([1]; first compound 0.8 µM) | relative viability ([1]; first compound 2.53 µM) | relative viability ([1]; first compound 8 µM) | relative viability ([2]; first compound 0.08 µM) | relative viability ([2]; first compound 0.8 µM) | relative viability ([2]; first compound 2.53 µM) | relative viability ([2]; first compound 8 µM) | relative viability ([3]; first compound 0.08 µM) | relative viability ([3]; first compound 0.8 µM) | relative viability ([3]; first compound 2.53 µM) | relative viability ([3]; first compound 8 µM) | relative viability ([4]; first compound 0.08 µM) | relative viability ([4]; first compound 0.8 µM) | relative viability ([4]; first compound 2.53 µM) | relative viability ([4]; first compound 8 µM) | relative viability ([5]; first compound 0.08 µM) | relative viability ([5]; first compound 0.8 µM) | relative viability ([5]; first compound 2.53 µM) | relative viability ([5]; first compound 8 µM)
1 | NCI-H1395 | 0.41 | 0.411 | 0.419 | 0.418 | 1.12 | 1.03 | 1.2 | 1.06 | 1.15 | 0.846 | 0.988 | 1.09 | 0.666 | 0.667 | 0.781 | 0.686 | 0.918 | 0.66 | 0.769 | 0.488
2 | NCI-H1437 | 1.18 | 1.06 | 1.16 | 1.17 | 1.11 | 1.05 | 1.15 | 1.11 | 0.517 | 0.526 | 0.577 | 0.477 | 0.571 | 0.621 | 0.622 | 0.702 | 1.17 | 1.1 | 1.17 | 1.22
3 | NCI-H1651 | 0.495 | 0.476 | 0.45 | 0.421 | 1.08 | 0.827 | 1.05 | 1.11 | 0.891 | 0.736 | 0.805 | 0.858 | 0.698 | 0.542 | 0.681 | 0.632 | 1.06 | 0.835 | 0.899 | 0.901
4 | NCI-H1666 | 0.855 | 0.992 | 0.921 | 0.892 | 1.12 | 0.679 | 1.1 | 0.931 | 0.903 | 0.795 | 0.865 | 0.877 | 0.728 | 0.693 | 0.693 | 0.788 | 1.03 | 0.964 | 1.03 | 1.08
5 | NCI-H1734 | 0.619 | 0.503 | 0.574 | 0.473 | 0.964 | 0.671 | 0.857 | 0.745 | 0.724 | 0.613 | 0.691 | 0.58 | 0.535 | 0.466 | 0.501 | 0.521 | 0.174 | 0.161 | 0.179 | 0.178
6 | NCI-H1755 | 0.417 | 0.483 | 0.419 | 0.525 | 1.05 | 0.934 | 0.963 | 0.962 | 0.804 | 0.713 | 0.744 | 0.771 | 0.731 | 0.678 | 0.691 | 0.778 | 0.511 | 0.328 | 0.417 | 0.406
7 | NCI-H1792 | 0.775 | 0.576 | 0.533 | 0.389 | 0.701 | 0.605 | 0.637 | 0.68 | 0.646 | 0.336 | 0.446 | 0.41 | 0.63 | 0.479 | 0.491 | 0.554 | 0.431 | 0.317 | 0.375 | 0.32
8 | NCI-H1793 | 0.654 |  | 0.476 | 0.339 | 0.503 | 0.382 | 0.468 | 0.604 | 0.444 |  | 0.497 | 0.517 | 0.461 |  | 0.614 | 0.549 | 0.148 | 0.152 | 0.172 | 0.188
9 | NCI-H1915 | 0.705 | 0.62 | 0.716 | 0.689 | 0.811 | 0.752 | 0.765 | 0.867 | 0.324 | 0.292 | 0.303 | 0.285 | 0.252 | 0.262 | 0.277 | 0.268 | 0.765 | 0.638 | 0.72 | 0.565
10 | NCI-H1944 | 0.477 | 0.544 | 0.524 | 0.492 | 1.08 | 1 | 1.04 | 1.09 | 0.402 | 0.312 | 0.395 | 0.358 | 0.439 | 0.403 | 0.405 | 0.46 | 0.406 | 0.632 | 0.72 | 0.726
11 | NCI-H1975 | 0.784 | 0.639 | 0.686 | 0.601 | 1.2 | 1.04 | 1.25 | 0.996 | 0.573 | 0.336 | 0.416 | 0.331 | 0.43 | 0.346 | 0.393 | 0.42 | 0.266 | 0.0934 | 0.223 | 0.209
12 | NCI-H1993 | 0.958 | 0.57 | 0.93 | 0.296 | 1.08 | 0.919 | 0.994 | 0.689 | 0.486 | 0.43 | 0.51 | 0.467 | 0.579 | 0.559 | 0.582 | 0.522 | 1.06 | 0.599 | 0.926 | 0.887
13 | NCI-H2085 | 1.05 | 0.957 | 1.14 | 0.981 | 1.27 | 1.1 | 1.27 | 1.26 | 0.67 | 0.538 | 0.64 | 0.502 | 0.485 | 0.534 | 0.67 | 0.667 | 0.53 | 0.4 | 0.49 | 0.42
14 | NCI-H2087 | 1.46 | 1.17 | 1.38 | 1.44 | 1.24 | 0.866 | 1.17 | 0.957 | 0.202 | 0.135 | 0.205 | 0.186 | 0.243 | 0.21 | 0.241 | 0.263 | 0.175 | 0.215 | 0.162 | 0.156
15 | NCI-H2126 | 1.03 | 0.91 | 0.981 | 0.962 | 0.914 | 0.78 | 0.844 | 0.794 | 0.617 | 0.552 | 0.617 | 0.541 | 0.586 | 0.581 | 0.562 | 0.552 | 0.961 | 0.893 | 0.983 | 0.893
16 | NCI-H2170 | 0.901 | 0.783 | 0.95 | 0.964 | 0.57 | 0.592 | 0.581 | 0.56 | 0.932 | 0.828 | 0.931 | 0.928 | 0.464 | 0.472 | 0.509 | 0.458 | 0.779 | 0.649 | 0.758 | 0.522
17 | NCI-H2347 | 0.989 | 0.73 | 0.797 | 0.606 | 0.871 | 0.707 | 0.749 | 0.786 | 0.306 | 0.293 | 0.256 | 0.167 | 0.648 | 0.58 | 0.626 | 0.664 | 0.568 | 0.373 | 0.289 | 0.297
18 | NCI-H2405 | 0.817 | 0.701 | 0.8 | 0.715 | 1.09 | 0.654 | 0.917 | 0.963 | 0.727 | 0.597 | 0.727 | 0.616 | 0.798 | 0.676 | 0.763 | 0.756 | 0.818 | 0.606 | 0.804 | 0.699
19 | NCI-H3122 | 0.98 | 0.909 | 1.05 | 1.1 | 1.02 | 0.919 | 1 | 1.09 | 0.241 | 0.179 | 0.227 | 0.232 | 0.535 | 0.376 | 0.466 | 0.426 | 0.0884 | 0.1 | 0.11 | 0.0946
20 | PC-3 [JPC-3] | 0.869 | 0.754 | 0.906 | 0.675 | 0.89 | 0.757 | 0.813 | 0.829 | 0.821 | 0.653 | 0.715 | 0.685 | 0.897 | 0.814 | 0.922 | 0.838 | 0.703 | 0.649 | 0.75 | 0.757
21 | PC-14 | 0.391 | 0.33 | 0.346 | 0.439 | 1.03 | 0.988 | 1.02 | 1.08 | 1.05 | 0.667 | 0.73 | 0.527 | 0.283 | 0.203 | 0.293 | 0.295 | 0.159 | 0.144 | 0.184 | 0.154
22 | RERF-LC-KJ | 1.05 | 1.04 | 0.982 | 1.19 | 1.36 | 0.977 | 0.881 | 0.833 | 0.932 | 0.867 | 0.836 | 0.857 | 0.784 | 0.587 | 0.743 | 0.682 | 1.23 | 1.08 | 1.36 | 0.965
